ChEMBL document CHEMBL1156070, “Functional and biochemical analysis of a key series of ramoplanin analogues” (Bioorg Med Chem Lett, 2009)
≈ marks a conversion by molar mass, not a printed value. Calls of active or inactive are those of the source. The rule behind the calls is not given here.

Key:
[1] = system: Staphylococcus aureus; test: Antibacterial activity against Staphylococcus aureus ATCC 29213 after 24 hrs by microdilution assay; type: functional; settings: ATCC 29213, 24 h
[2] = system: Escherichia coli; test: Inhibition of Escherichia coli PBP1b-mediated lipid 2 incorporation into peptidoglycon at 6 uM
[3] = Binding affinity to synthetic lipid 2 analogue fl-LPII

MIC [1] [µg/mL]	inhibition [2]	Kd [3] [nM]	Compound
6.3 (≈ 2.99 µM)	inactive	6300	CC(C)C/C=C/C=C/C(=O)N[C@@H](CC(N)=O)C(=O)N[C@H]1CNC(=O)[C@H](c2ccc(O)c(Cl)c2)NC(=O)[C@@H](C)NC(=O)[C@H](CC(C)C)NC(=O)CNC(=O)[C@H](c2ccc(O)cc2)NC(=O)[C@@H]([C@@H](C)O)NC(=O)[C@H](C)NC(=O)[C@@H](CCCN)NC(=O)[C@H](Cc2ccccc2)NC(=O)[C@H]([C@H](C)O)NC(=O)[C@@H](c2ccc(O)cc2)NC(=O)[C@H](c2ccc(O)cc2)NC(=O)[C@@H]([C@@H](C)O)NC(=O)[C@@H](CCCN)NC(=O)[C@@H](c2ccc(O)cc2)NC1=O
0.4 (≈ 0.183 µM)	Active	33	CC(C)C/C=C/C=C/C(=O)N[C@@H](CC(N)=O)C(=O)N[C@H]1CNC(=O)[C@H](c2ccc(O)c(Cl)c2)NC(=O)[C@@H](C)NC(=O)[C@H](CC(C)C)NC(=O)CNC(=O)[C@H](c2ccc(O)cc2)NC(=O)[C@@H]([C@@H](C)O)NC(=O)[C@H](c2ccc(O)cc2)NC(=O)[C@@H](CCCN)NC(=O)[C@H](Cc2ccccc2)NC(=O)[C@H]([C@H](C)O)NC(=O)[C@@H](c2ccc(O)cc2)NC(=O)[C@H](c2ccc(O)cc2)NC(=O)[C@@H]([C@@H](C)O)NC(=O)[C@@H](CCCN)NC(=O)[C@@H](c2ccc(O)cc2)NC1=O
> 50	inactive	6500	CC(C)C/C=C/C=C/C(=O)N[C@@H](CC(N)=O)C(=O)N[C@H]1CNC(=O)[C@H](c2ccc(O)c(Cl)c2)NC(=O)[C@@H](C)NC(=O)[C@H](CC(C)C)NC(=O)CNC(=O)[C@H](c2ccc(O)cc2)NC(=O)[C@@H]([C@@H](C)O)NC(=O)[C@H](c2ccc(O)cc2)NC(=O)C(C)NC(=O)[C@H](Cc2ccccc2)NC(=O)[C@H]([C@H](C)O)NC(=O)[C@@H](c2ccc(O)cc2)NC(=O)[C@H](c2ccc(O)cc2)NC(=O)[C@@H]([C@@H](C)O)NC(=O)[C@@H](CCCN)NC(=O)[C@@H](c2ccc(O)cc2)NC1=O (single isomer, unassigned)
0.4 (≈ 0.179 µM)	Active	40	CC(C)C/C=C/C=C/C(=O)N[C@@H](CC(N)=O)C(=O)N[C@@H]1C(=O)N[C@H](c2ccc(O)cc2)C(=O)N[C@H](CCCN)C(=O)N[C@H]([C@@H](C)O)C(=O)N[C@@H](c2ccc(O)cc2)C(=O)N[C@H](c2ccc(O)cc2)C(=O)N[C@@H]([C@H](C)O)C(=O)N[C@@H](Cc2ccccc2)C(=O)N[C@H](CCCN)C(=O)N[C@@H](c2ccc(O)cc2)C(=O)N[C@H]([C@@H](C)O)C(=O)N[C@@H](c2ccc(O)cc2)C(=O)NCC(=O)N[C@@H](CC(C)C)C(=O)N[C@H](C)C(=O)N[C@@H](c2ccc(O)c(Cl)c2)C(=O)O[C@@H]1C(N)=O [RAMOPLANIN AGLYCON]
2.4 (≈ 1.11 µM)	Active	447	CC(C)C/C=C/C=C/C(=O)N[C@@H](CC(N)=O)C(=O)N[C@H]1CNC(=O)[C@H](c2ccc(O)c(Cl)c2)NC(=O)[C@@H](C)NC(=O)[C@H](CC(C)C)NC(=O)CNC(=O)[C@H](c2ccc(O)cc2)NC(=O)[C@@H]([C@@H](C)O)NC(=O)[C@H](c2ccc(O)cc2)NC(=O)[C@@H](CCCN)NC(=O)[C@H](Cc2ccccc2)NC(=O)[C@H]([C@H](C)O)NC(=O)[C@@H](c2ccc(O)cc2)NC(=O)[C@H](c2ccc(O)cc2)NC(=O)[C@@H](C)NC(=O)[C@@H](CCCN)NC(=O)[C@@H](c2ccc(O)cc2)NC1=O
13 (≈ 6.17 µM)	Active	–	CC(C)C/C=C/C=C/C(=O)N[C@@H](CC(N)=O)C(=O)N[C@H]1CNC(=O)[C@H](c2ccc(O)c(Cl)c2)NC(=O)[C@@H](C)NC(=O)[C@H](CC(C)C)NC(=O)CNC(=O)[C@H](c2ccc(O)cc2)NC(=O)[C@@H]([C@@H](C)O)NC(=O)[C@H](c2ccc(O)cc2)NC(=O)[C@@H](CCCN)NC(=O)[C@H](Cc2ccccc2)NC(=O)[C@H]([C@H](C)O)NC(=O)[C@@H](c2ccc(O)cc2)NC(=O)[C@H](c2ccc(O)cc2)NC(=O)[C@@H]([C@@H](C)O)NC(=O)[C@@H](CCCN)NC(=O)[C@H](C)NC1=O
33 (≈ 15.3 µM)	inactive	5400	CC(C)C/C=C/C=C/C(=O)N[C@@H](CC(N)=O)C(=O)N[C@H]1CNC(=O)[C@H](c2ccc(O)c(Cl)c2)NC(=O)[C@@H](C)NC(=O)[C@H](CC(C)C)NC(=O)CNC(=O)[C@H](c2ccc(O)cc2)NC(=O)[C@H](C)NC(=O)[C@H](c2ccc(O)cc2)NC(=O)[C@@H](CCCN)NC(=O)[C@H](Cc2ccccc2)NC(=O)[C@H]([C@H](C)O)NC(=O)[C@@H](c2ccc(O)cc2)NC(=O)[C@H](c2ccc(O)cc2)NC(=O)[C@@H]([C@@H](C)O)NC(=O)[C@@H](CCCN)NC(=O)[C@@H](c2ccc(O)cc2)NC1=O
31 (≈ 14.5 µM)	inactive	4300	CC(C)C/C=C/C=C/C(=O)N[C@@H](CC(N)=O)C(=O)N[C@H]1CNC(=O)[C@H](c2ccc(O)c(Cl)c2)NC(=O)[C@@H](C)NC(=O)[C@H](CC(C)C)NC(=O)CNC(=O)[C@H](c2ccc(O)cc2)NC(=O)[C@@H]([C@@H](C)O)NC(=O)[C@H](c2ccc(O)cc2)NC(=O)[C@@H](CCCN)NC(=O)[C@H](Cc2ccccc2)NC(=O)[C@H]([C@H](C)O)NC(=O)[C@@H](c2ccc(O)cc2)NC(=O)[C@H](c2ccc(O)cc2)NC(=O)[C@@H]([C@@H](C)O)NC(=O)[C@H](C)NC(=O)[C@@H](c2ccc(O)cc2)NC1=O
13 (≈ 6.17 µM)	inactive	1200	CC(C)C/C=C/C=C/C(=O)N[C@@H](CC(N)=O)C(=O)N[C@H]1CNC(=O)[C@H](c2ccc(O)c(Cl)c2)NC(=O)[C@@H](C)NC(=O)[C@H](CC(C)C)NC(=O)CNC(=O)[C@H](c2ccc(O)cc2)NC(=O)[C@@H]([C@@H](C)O)NC(=O)[C@H](c2ccc(O)cc2)NC(=O)[C@@H](CCCN)NC(=O)[C@H](Cc2ccccc2)NC(=O)[C@H]([C@H](C)O)NC(=O)[C@H](C)NC(=O)[C@H](c2ccc(O)cc2)NC(=O)[C@@H]([C@@H](C)O)NC(=O)[C@@H](CCCN)NC(=O)[C@@H](c2ccc(O)cc2)NC1=O
1.6 (≈ 0.758 µM)	Active	383	CC(C)C/C=C/C=C/C(=O)N[C@@H](CC(N)=O)C(=O)N[C@H]1CNC(=O)[C@H](c2ccc(O)c(Cl)c2)NC(=O)[C@@H](C)NC(=O)[C@H](CC(C)C)NC(=O)CNC(=O)[C@H](c2ccc(O)cc2)NC(=O)[C@@H]([C@@H](C)O)NC(=O)[C@H](c2ccc(O)cc2)NC(=O)[C@@H](CCCN)NC(=O)C(C)NC(=O)[C@H]([C@H](C)O)NC(=O)[C@@H](c2ccc(O)cc2)NC(=O)[C@H](c2ccc(O)cc2)NC(=O)[C@@H]([C@@H](C)O)NC(=O)[C@@H](CCCN)NC(=O)[C@@H](c2ccc(O)cc2)NC1=O (single isomer, unassigned)
1.6 (≈ 0.759 µM)	Active	378	CC(C)C/C=C/C=C/C(=O)N[C@@H](CC(N)=O)C(=O)N[C@H]1CNC(=O)[C@H](c2ccc(O)c(Cl)c2)NC(=O)[C@@H](C)NC(=O)[C@H](CC(C)C)NC(=O)CNC(=O)[C@H](c2ccc(O)cc2)NC(=O)[C@@H]([C@@H](C)O)NC(=O)[C@H](c2ccc(O)cc2)NC(=O)[C@@H](CCCN)NC(=O)[C@H](Cc2ccccc2)NC(=O)[C@H]([C@H](C)O)NC(=O)[C@@H](c2ccc(O)cc2)NC(=O)[C@H](C)NC(=O)[C@@H]([C@@H](C)O)NC(=O)[C@@H](CCCN)NC(=O)[C@@H](c2ccc(O)cc2)NC1=O
38 (≈ 17.6 µM)	inactive	8700	CC(C)C/C=C/C=C/C(=O)N[C@@H](CC(N)=O)C(=O)N[C@H]1CNC(=O)[C@H](c2ccc(O)c(Cl)c2)NC(=O)[C@@H](C)NC(=O)[C@H](CC(C)C)NC(=O)CNC(=O)[C@H](c2ccc(O)cc2)NC(=O)[C@@H]([C@@H](C)O)NC(=O)[C@H](c2ccc(O)cc2)NC(=O)[C@@H](CCCN)NC(=O)[C@H](Cc2ccccc2)NC(=O)[C@H](C)NC(=O)[C@@H](c2ccc(O)cc2)NC(=O)[C@H](c2ccc(O)cc2)NC(=O)[C@@H]([C@@H](C)O)NC(=O)[C@@H](CCCN)NC(=O)[C@@H](c2ccc(O)cc2)NC1=O
